Results: US11014911B2, “CDK2 inhibitors” (Pfizer Inc., priority 2019, dated 2021)

Target: CDK2/Cyclin E1 full length (Homo sapiens (Human), UniProt P24941)
Test: CDK2/Cyclin E1 full length mobility shift assay
Assay type: biochemical

Row | Compound | Ki
1 | CNC(=O)O[C@@H]1CC[C@H](c2cc(NC(=O)Cc3ccc(OC)nc3)n[nH]2)C1 [Example 256, (1R,3S)-3-(3-{[(6-methoxypyridin-3-yl)acetyl]amino}-1H-pyrazol-5-yl)cyclopentyl methylcarbamate] | 2.58 nM
2 | O=C(Cc1ccno1)Nc1cc([C@H]2CC[C@@H](OC(=O)NCC3CC3)C2)[nH]n1 [Example 465, (1R,3S)-3-{3-[(1,2-oxazol-5-ylacetyl)amino]-1H-pyrazol-5-yl}cyclopentyl (cyclopropylmethyl)carbamate] | 1.95 nM
3 | COc1ccc(CC(=O)Nc2cc([C@H]3CC[C@@H](OC(=O)N4CCC4C)C3)[nH]n2)cn1 (single isomer, unassigned) [Example 152] | 1.06 nM
4 | CC[C@H](C)NC(=O)O[C@@H]1CC[C@H](c2cc(NC(=O)Cc3cn4cccnc4n3)n[nH]2)C1 [Example 354, (1R,3S)-3-{3-[(imidazo[1,2-a]pyrimidin-2-ylacetyl)amino]-1H-pyrazol-5-yl}cyclopentyl (2S)-butan-2-ylcarbamate] | 3.74 nM
5 | Cc1cnc(CC(=O)Nc2cc([C@H]3CC[C@@H](OC(=O)NC4(C)CC4)C3)[nH]n2)c(Cl)c1 [Example 438, (1R,3S)-3-(3-{[(3-chloro-5-methylpyridin-2-yl)acetyl]amino}-1H-pyrazol-5-yl)cyclopentyl (1-methylcyclopropyl)carbamate] | 2.5 nM
6 | COc1cnc(CC(=O)Nc2cc([C@H]3CC[C@@H](OC(=O)NC4(C)CCOC4)C3)[nH]n2)cn1 (single isomer, unassigned) [Example 486] | 1.46 nM
7 | COc1cc(C(=O)Nc2cc([C@H]3CC[C@@H](OC(=O)N[C@@H](C)CC(F)(F)F)C3)[nH]n2)n(C)n1 [Example 94] | 0.15 nM
8 | CCCNC(=O)O[C@@H]1CC[C@H](c2cc(NC(=O)Cc3cccc4ncsc34)n[nH]2)C1 [Example 196, (1R,3S)-3-{3-[(1,3-benzothiazol-7-ylacetyl)amino]-1H-pyrazol-5-yl}cyclopentyl propylcarbamate] | 1.44 nM
9 | Cc1ccc(C(=O)Nc2cc([C@H]3CC[C@@H](OC(=O)NC4(CC(F)(F)F)CC4)C3)[nH]n2)cn1 [Example 452, (1R,3S)-3-(3-{[(6-methylpyridin-3-yl)carbonyl]amino}-1H-pyrazol-5-yl)cyclopentyl [1-2,2,2-trifluoroethyl)cyclopropyl] carbamate] | 0.51 nM
10 | COc1ccc(CC(=O)Nc2cc([C@@H]3CC[C@H](OC(=O)N[C@H]4CC[C@H](O)CC4)C3)[nH]n2)cn1 [Example 556, (1S,3R)-3-(3-{[(6-methoxypyridin-3-yl)acetyl]amino}-1H-pyrazol-5-yl)cyclopentyl (trans-4-hydroxycyclohexyl)carbamate] | 0.46 nM
11 | COc1cc(CC(=O)Nc2cc([C@H]3CC[C@@H](OC(=O)NC4CCOCC4)C3)[nH]n2)ccn1 [Example 504, (1R,3S)-3-(3-{[(2-methoxypyridin-4-yl)acetyl]amino}-1H-pyrazol-5-yl)cyclopentyl tetrahydro-2H-pyran-4-ylcarbamate] | 3.64 nM
12 | CC(C)(C)NC(=O)O[C@@H]1CC[C@H](c2cc(NC(=O)Cc3ccc(F)cn3)n[nH]2)C1 [Example 300, (1R,3S)-3-(3-{[(5-fluoropyridin-2-yl)acetyl]amino}-1H-pyrazol-5-yl)cyclopentyl tert-butylcarbamate] | 0.65 nM
13 | COc1ccc(S(C)(=O)=O)c(CC(=O)Nc2cc([C@H]3CC[C@@H](OC(=O)NC(C)C)C3)[nH]n2)c1 [Example 288, (1R,3S)-3-[3-({[5-methoxy-2-(methylsulfonyl)phenyl]acetyl}amino)-1H-pyrazol-5-yl]cyclopentyl propan-2-ylcarbamate] | 0.39 nM
14 | COc1cnc(CC(=O)Nc2cc([C@H]3CC[C@@H](OC(=O)N[C@@H](C)C4CC4)C3)[nH]n2)cn1 [Example 106] | 0.76 nM
15 | C[C@@H](CF)NC(=O)O[C@@H]1CC[C@H](c2cc(NC(=O)Cc3cnn(C)c3)n[nH]2)C1 [Example 378, (1R,3S)-3-(3-{[(1-methyl-1H-pyrazol-4-yl)acetyl]amino}-1H-pyrazol-5-yl)cyclopentyl [(2S)-1-fluoropropan-2-yl]carbamate] | 0.83 nM
16 | COc1cc(CC(=O)Nc2cc([C@H]3CC[C@@H](OC(=O)N4CCC4C)C3)[nH]n2)ccn1 (single isomer, unassigned) [Example 154] | 1.77 nM
17 | COc1cc(CC(=O)Nc2cc([C@H]3CC[C@@H](OC(=O)NC(C)CC(F)F)C3)[nH]n2)ccn1 (single isomer, unassigned) [Example 99] | 0.09 nM
18 | CC[C@H](C)NC(=O)O[C@@H]1CC[C@H](c2cc(NC(=O)Cc3cnc(OC)cn3)n[nH]2)C1 [Example 347, (1R,3S)-3-(3-{[(5-methoxypyrazin-2-yl)acetyl]amino}-1H-pyrazol-5-yl)cyclopentyl (2S)-butan-2-ylcarbamate] | 0.37 nM
19 | COc1cnc(CC(=O)Nc2cc([C@H]3CC[C@@H](OC(=O)NCCC(F)(F)F)C3)[nH]n2)s1 [Example 223, (1R,3S)-3-(3-{[(5-methoxy-1,3-thiazol-2-yl)acetyl]amino}-1H-pyrazol-5-yl)cyclopentyl (3,3,3-trifluoropropyl)carbamate] | 2.33 nM

Row | Compound | Ki
20 | CN1CC(CNC(=O)O[C@H]2CC[C@@H](c3cc(NC(=O)Cc4cc(F)cc(F)c4)n[nH]3)C2)OCC1=O (single isomer, unassigned) [Example 583] | 2.71 nM
21 | Cc1cc(CC(=O)Nc2cc([C@H]3CC[C@@H](OC(=O)N4CCC4C)C3)[nH]n2)on1 (single isomer, unassigned) [Example 590] | 2.86 nM
22 | COC[C@H](C)NC(=O)O[C@@H]1CC[C@H](c2cc(NC(=O)Cc3cnc(C(F)(F)F)cn3)n[nH]2)C1 [Example 523, (1R,3S)-3-[3-({[5-(trifluoromethyl)pyrazin-2-yl]acetyl}amino)-1H-pyrazol-5-yl]cyclopentyl [(2S)-1-methoxypropan-2-yl]carbamate] | 2.49 nM
23 | COC[C@H](C)NC(=O)O[C@@H]1CC[C@H](c2cc(NC(=O)Cc3ccccc3)[nH]n2)C1 [Example 517, (1R,3S)-3-{5-[(phenylacetyl)amino]-1H-pyrazol-3-yl}cyclopentyl [(2S)-1-methoxypropan-2-yl]carbamate] | 1.29 nM
24 | CC1(NC(=O)O[C@@H]2CC[C@H](c3cc(NC(=O)CC4COc5ccccc54)n[nH]3)C2)CCOC1 (stereo partly drawn) [Example 491, (1R,3S)-3-(3-{[(3ξ)-2,3-dihydro-1-benzofuran-3-ylacetyl]amino}-1H-pyrazol-5-yl)cyclopentyl [(3ξ)-3-methyltetrahydrofuran-3-yl]carbamate] | 3.87 nM
25 | CC(C)(C)NC(=O)O[C@@H]1CC[C@H](c2cc(NC(=O)Cc3coc(C4CC4)n3)n[nH]2)C1 [Example 306, (1R,3S)-3-(3-{[(2-cyclopropyl-1,3-oxazol-4-yl)acetyl]amino}-1H-pyrazol-5-yl)cyclopentyl tert-butylcarbamate] | 1.09 nM
26 | CC(C)NC(=O)O[C@@H]1CC[C@H](c2cc(NC(=O)C3COc4ccccc43)n[nH]2)C1 (single isomer, unassigned) [Example 57] | 3.54 nM
27 | CC(CC(F)(F)F)N(C)C(=O)O[C@@H]1CC[C@H](c2cc(NC(=O)c3cnnn3C)n[nH]2)C1 (single isomer, unassigned) [Example 411] | 2.58 nM
28 | Cc1nc(CC(=O)Nc2cc([C@H]3CC[C@@H](OC(=O)NC4(C)CC4)C3)[nH]n2)ccc1Cl [Example 442, (1R,3S)-3-(3-{[(5-chloro-6-methylpyridin-2-yl)acetyl]amino}-1H-pyrazol-5-yl)cyclopentyl (1-methylcyclopropyl)carbamate] | 0.37 nM
29 | CC[C@H](C)NC(=O)O[C@@H]1CC[C@H](c2cc(NC(=O)Cc3ccn(C)n3)n[nH]2)C1 [Example 328, (1R,3S)-3-(3-{[(1-methyl-1H-pyrazol-3-yl)acetyl]amino}-1H-pyrazol-5-yl)cyclopentyl (2S)-butan-2-ylcarbamate] | 1.77 nM
30 | COC[C@H](C)NC(=O)O[C@@H]1CC[C@H](c2cc(NC(=O)Cc3cnc(OC)cn3)n[nH]2)C1 [Example 520, (1R,3S)-3-(3-{[(5-methoxypyrazin-2-yl)acetyl]amino}-1H-pyrazol-5-yl)cyclopentyl [(2S)-1-methoxypropan-2-yl]carbamate] | 2.88 nM
31 | CCC1(NC(=O)O[C@@H]2CC[C@H](c3cc(NC(=O)Cc4ncc(C)o4)n[nH]3)C2)CC1 [Example 448, (1R,3S)-3-(3-{[(5-methyl-1,3-oxazol-2-yl)acetyl]amino}-1H-pyrazol-5-yl)cyclopentyl (1-ethylcyclopropyl)carbamate] | 0.29 nM
32 | Cc1cnc(CC(=O)Nc2cc([C@H]3CC[C@@H](OC(=O)NC4(CC(F)(F)F)CC4)C3)[nH]n2)o1 [Example 454, (1R,3S)-3-(3-{[(5-methyl-1,3-oxazol-2-yl)acetyl]amino}-1H-pyrazol-5-yl)cyclopentyl[1-(2,2,2-trifluoroethyl)cyclopropyl]carbamate] | 0.48 nM
33 | COCCn1nccc1C(=O)Nc1cc([C@H]2CC[C@@H](OC(=O)NC(C)CC(F)(F)F)C2)[nH]n1 (single isomer, unassigned) [Example 88] | 0.15 nM
34 | COc1ccc(CC(=O)Nc2cc([C@@H]3CC[C@H](OC(=O)N[C@H]4CC[C@@H](O)CC4)C3)[nH]n2)cn1 [Example 553, (1S,3R)-3-(3-{[(6-methoxypyridin-3-yl)acetyl]amino}-1H-pyrazol-5-yl)cyclopentyl (cis-4-hydroxycyclohexyl)carbamate] | 0.41 nM
35 | CC1(NC(=O)O[C@@H]2CC[C@H](c3cc(NC(=O)Cc4cn(CC(F)(F)F)nn4)n[nH]3)C2)CC1 [Example 446, (1R,3S)-3-[3-({[1-(2,2,2-trifluoroethyl)-1H-1,2,3-triazol-4-yl]acetyl}amino)-1H-pyrazol-5-yl]cyclopentyl (1-methylcyclopropyl)carbamate] | 1.7 nM
36 | CC(CC(F)(F)F)NC(=O)O[C@@H]1CC[C@H](c2cc(NC(=O)Cc3ccon3)n[nH]2)C1 (single isomer, unassigned) [Example 63] | 1.25 nM
37 | COc1cc(CC(=O)Nc2cc([C@@H]3CC[C@H](OC(=O)NCC4CCN(C(C)=O)CC4)C3)[nH]n2)ccn1 [Example 581, (1S,3R)-3-(3-{[(2-methoxypyridin-4-yl)acetyl]amino}-1H-pyrazol-5-yl)cyclopentyl[(1-acetylpiperidin-4-yl)methyl]carbamate] | 2.62 nM
